Entries after “also recorded” stand apart in the source; their conditions may differ.
Columns and labels:
[1] = system: C57BL/6J mice; test: Operant ethanol-reinforced lever pressing (CONC FR1 FR1, 16-h sessions) after systemic administration; type: in vivo, mouse; conditions: for alcohol-seeking behavior (lever presses for alcohol) during the peak period: 4th-5th hour of access, vs saline
Description: Another animal model suitable for testing the effectiveness of the NPY antagonist uses alcohol-reinforced lever pressing behavior as described in Olive et al. Eur. J. Neurosci. 2000 Vol 12, 4131-4140. This model is particularly useful for identifying NPY antagonists that prevent or delay alcohol seeking behavior or prevent or reduce the occurence of relapse drinking in recovering alcoholics.
Male C57BL/6J mice (N=8) were housed in standard Plexiglas cages (n=4/cage) with food (Harlan, Indianapolis, Ind.) and water always available. Mice were 20 weeks of age (body weight, 28-35 g) and drug naïve at the start of all testing. During operant self-administration training, food pellets (15 g per overnight session) were placed into the operant chambers and water was available under a fixed ratio-1 (FR-1) schedule of reinforcement.
Test sessions were conducted in 8 Plexiglas operant chambers (Med Associates, Lafayette, Ind.) measuring 15.9×14×12.7 cm with stainless steel grid floors. Each chamber was housed in a sound-attenuating cubicle equipped with a house fan that provided ventilation and helped mask external noise. The left and right wall of each operant chamber was equipped with one ultra-sensitive stainless steel response lever and a liquid delivery system. Liquid solutions (ethanol or water) were maintained in 60 ml syringes mounted on a programmable pump (PH-100, Med Associates), which delivered 0.01 ml per activation into a stainless steel cup located to the left of the associated response lever. Each chamber also contained a house light (illuminated between 16:00-18:00 hr and 06:00-08:00 hr), as well as a stimulus light located above each lever (activated each time the lever was pressed). The chambers were interfaced (Med Associates) to an IBM-compatible PC, which was programmed to record all lever presses and liquid deliveries.
Mice were trained to lever press using reinforcement (10% sucrose w/v) of successive approximations. After initial behavioral shaping sessions, mice were run during 16 hr overnight (16:00-08:00 hrs) training sessions. During these training sessions, both response levers were active on a concurrent fixed ratio one (CONC FR1 FR1) schedule with 10% sucrose vs. water presented as the reinforcer. The position of each solution (left or right) was fixed for each animal but counterbalanced between animals to control for side preference. After 4 days, mice were trained to orally self-administer ethanol (10% v/v) vs. water using a sucrose substitution procedure, which we have adapted for use in the mouse (Olive et al., 2000 Eur. J. Neurosci. 12:4131-4140). Briefly, ethanol (2, 4, 8, or 10% v/v) was incrementally added to the sucrose (10% w/v) solution with 4 days at each increasing concentration. Then, sucrose (10, 5, 2% w/v) was incrementally faded out of the ethanol containing solution with 4 days at each decreasing concentration. After sucrose substitution training, all mice reliably responded on the CONC FR1 FR1 schedule of reinforcement with ethanol (10% v/v) vs. water presented as the reinforcers.

[2] = system: Long-Evans rats; test: Body weight, food intake and water intake in the home cage 24 hours after PVN infusion; type: in vivo, rat
Procedure: FIG. 2 depicts the effects of NPY or NPY+D-NPY infused in the PVN on (A) body weight, (B) food intake, and (C) water intake measured in the home cage 24 hours after infusion. Drug doses were administered in random order. Data are plotted as Mean±SEM of 11 rats.
(§1) Microinjection procedure. When ethanol and water intake stabilized again, microinjections were conducted once per week. Unanesthetized rats were placed in plastic containers (15×30×15 cm deep) to reduce movement. Obturators were removed and sterile 33-gauge injectors were inserted bilaterally to a depth 1 mm beyond the end of the guide cannulae. Drug solutions were infused bilaterally in distilled water vehicle in a total volume of 1 μl (0.5 μl/side) over a 1-min period. The injectors were left in place for an additional 30-sec period to allow drug diffusion. Precise flow of the solutions was verified before and after each injection to ensure compound delivery. Self-administration sessions began immediately after microinjections. Sterile obturators were reinserted at the end of the behavioral sessions. When co-administered, D-NPY or BIBP 3226 was infused 15-min prior to NPY. Vehicle injections were also performed to control for local pressure or osmotic changes caused by infusions. During one month prior to drug testing, the animals were handled and placed in the plastic tubs to minimize the effects of procedural changes on subsequent drug effects. The data from these sessions were not used in the analysis. After completion of the microinjection protocol, the rats were sacrificed and their brains were removed for histological verification of injection sites.

[3] = system: Long-Evans rats; test: Ethanol vs. water intake after NPY infusion in the PVN, control rats with no long-term history of ethanol self-administration; type: in vivo, rat; conditions: for ETOH Intake / ETOH Preference (%) / water intake: mean±SEM
Description: Since NPY has potent effects on consummatory behavior, it is possible that NPY infusions in the PVN could alter ethanol intake via mechanisms that are unrelated to experience with the pharmacological effects of ethanol. […] Experimentally naive rats were allowed one week to adapt to the laboratory. They were then implanted with bilateral guide cannulae aimed at the PVN. Experimental sessions began one week after surgery to allow for recovery. During daily 60-min sessions, rats were placed in the self-administration chambers with concurrent ethanol (10% v/v) vs. water available. Baseline levels of ethanol and water intake were measured for one week. Microinjection procedures were then conducted.
as §1
Data analysis and statistics. Volume of ethanol and water consumed was measured to the nearest 0.5 milliliter at the end of each 1-h session. Ethanol intake was converted from mls consumed to g/kg body weight. Relative ethanol intake (preference) was calculated as mls of ethanol consumed divided by total fluid intake (ethanol+water mils). Drug dose effects were analyzed by one-way repeated measures analysis of variance (ANOVA). Post-hoc comparisons between drug doses and vehicle control were conducted using paired t-test or Dunnett's t-test where appropriate (SigmaStat, Jandel, San Rafael, Calif.).
Data values are presented as mean±SEM.

[4] = system: Long-Evans rats; test: Ethanol (10% v/v) vs. water self-administration after infusion in the PVN, sucrose-faded rats with long-term ethanol history; type: in vivo, rat
Description: The effectiveness of known NPY receptor antagonists and NPY Y1-selective or Y5selective receptor antagonists in reducing craving for alcohol and reducing self-administration of alcohol can be tested in experimental animal models. Briefly, Long-Evans rats are conditioned to the laboratory environment and trained to self-administer concurrent ethanol (10% v/v) vs. water using a sucrose-fading procedure (H. H. Samson, Alcohol Clin. Exp. Res., 1986, 10:436442) as described by Hodge et al. (Alcohol, 1993, 10:191-196). Stereotaxic surgery is performed to implant injector guide cannulae aimed at the PVN. Microinjections of test compounds are given, with and without concomitant injection of NPY, into the PVN of the conditioned rats, which are then immediately given the opportunity to self-administer either water or ethanol (10% v/v). The volume of ethanol and water consumed are measured. Ethanol intake is converted from milliliters consumed to gram/kilogram body weight. Relative ethanol intake (preference) is calculated as […] of ethanol consumed divided by total fluid intake (ethanol+water […]). Drug dose effects are analyzed by one-way repeated measures analysis of variance (ANOVA). Post-hoc comparisons between drug doses and vehicle control are conducted using a paired t-test or Dunnett's t-test where appropriate (SigmaStat, Jandel, San Rafael, Calif.).
Animals. Thirty-six male Long-Evans rats (Harlan, Indianapolis, Ind.) were housed individually in Plexiglas cages. Access to water was restricted during the first day of behavioral training, but was continuously available for the remainder of the experiment. Food was always available in the home cage. In experimental chambers, ethanol (10% v/v) and water were available concurrently during daily (M-F) sessions. The animal colony room was maintained on a 12L:12D cycle with the lights on at 06:30. Experimental sessions were run during the light portion of the cycle. All experimental procedures were conducted under institutional and NIH guidelines.
Apparatus. Experimental sessions were conducted in Plexiglas chambers (27×37×21 cm) located in sound-attenuating cubicles (MED Associates, model ENV 016M, Lafayette, Ind.). Chambers were equipped with exhaust fans that masked external noise. The right wall of each chamber contained two 50-ml drinking bottles. Drug solutions were administered bilaterally through stainless steel injectors (Plastics One, Roanoke, Va.), which were connected via plastic tubing to two 1.0 μl syringes (Hamilton, Reno, Nev.). Syringes were mounted on a micro-infusion pump (Harvard Apparatus, Model 22, Natick, Mass.) set to deliver 0.5 μl/min/syringes.
Self-administration procedures. After 2 weeks of adaptation to laboratory housing conditions, fluid access was restricted to 1-h per day (for 2 days only) and two groups of rats (n=12 per group) were trained to drink from the bottles in the experimental chambers by overnight access to sucrose (10% w/v) vs. water during one overnight session. Daily 1 hour sessions were then conducted with sucrose (10% w/v) vs. water available concurrently. The location (i.e., left or right side of the chamber) of the sucrose and water solutions was alternated daily. When sucrose and water intake patterns stabilized, the rats were trained to self-administer concurrent ethanol (10% v/v) vs. water using a sucrose-fading procedure (H. H. Samson, Alcohol Clin. Exp. Res., 1986, 10:436-442) as previously described (e.g., Hodge et al., 1993). Briefly, ethanol was gradually added to the sucrose solution and then sucrose was faded out of the solution until rats were self-administering 10% ethanol vs. water. During the 2-month sucrose-fading procedure, the location of the ethanol/sucrose solution and water were alternated daily.

[5] = NPY in the PVN, 24 hours after infusion, ethanol-experienced rats
[6] = NPY, sucrose-inexperienced animals
[7] = any dose of NPY tested, rats without long-term ethanol history
[8] = D-NPY co-administered with NPY (10 fmol) in the PVN

Molecule: CC1(C)CC(=O)C(C2C3=C(CC(C)(C)CC3=O)Oc3ccccc32)C(=O)C1 (centres unmarked) [L 152,804, 2-(3,3-dimethyl-1-oxo-4H-1H-xanthen-9-yl)-5,5-dimethylcyclohexane-1,3-dione]
- self-administration during the 13th hour of access ([1]; 60 mg/kg): compensatory increase in self-administration
- alcohol-seeking behavior (lever presses for alcohol) during the peak period ([1]; 60 mg/kg): significantly decreased alcohol-seeking behavior
- alcohol-seeking behavior (lever presses for alcohol) during the peak period ([1]; 60 mg/kg, listed as LI 52,804): blocked this peak in alcohol-seeking behavior
- latency to the first response (delay to first alcohol lever press) ([1]; dose-dependent, vs no injection and saline controls): significantly increased the latency to the first response; also recorded: dose dependently delayed the onset of responding
- response latency, statistical significance ([1]; highest dose): did not achieve significance
- water intake during 16-h sessions ([1]; systemic, 10, 30 and 60 mg/kg): no effect on water intake
- ethanol self-administration ([1]; the two low doses (10, 30 mg/kg)): did not significantly alter ethanol self-administration

Molecule: Neuropeptide Y [NPY]
- body weight in the home cage [2, 5]: no effect
- food consumption in the home cage [2, 5]: no effect
- water intake in the home cage ([2]; NPY in the PVN, 24 hours after infusion, ethanol-experienced rats, p<0.05): reduced water intake in the home cage; also recorded: small but significant reductions
- body weight in the home cage [2, 6]: no effect
- food intake in the home cage [2, 6]: no effect
- water intake in the home cage [2, 6]: no effect
- ETOH Intake ([3]; NPY 10.0 fmol in the PVN): 0.0330 ± 0.024 g/kg/h
- ETOH Preference (%) ([3]; NPY 10.0 fmol in the PVN): 20.0 ± 13.333%
- water intake ([3]; NPY 10.0 fmol in the PVN): 0 ± 0 mL/h
- ETOH Intake ([3]; NPY 100.0 fmol in the PVN): 0.0550 ± 0.03 g/kg/h
- ETOH Preference (%) ([3]; NPY 100.0 fmol in the PVN): 30 ± 15.275%
- water intake ([3]; NPY 100.0 fmol in the PVN): 0.3 ± 0.133 mL/h
- change in ethanol intake [3, 7]: no dose of NPY tested produced a change; also recorded: no effect on ethanol intake
- change in ethanol preference [3, 7]: no dose of NPY tested produced a change
- change in water intake [3, 7]: no dose of NPY tested produced a change
- ethanol intake ([4]; NPY (10 fmol) in the PVN, BIBP 3226 group of 9 rats): significantly increased ethanol intake above control values
- water intake during experimental sessions ([4]; NPY infused in the PVN): decreased water intake in a dose-dependent manner; also recorded: significantly decreased water intake
- ethanol intake ([4]; NPY infused in the PVN, all doses, 1-hour session, vs vehicle control): increases alcohol self-administration; also recorded: significantly increased ethanol intake
- ethanol preference ([4]; NPY infused in the PVN, dose-dependent, 1-hour session): significantly increased ethanol preference
- ethanol as share of fluid consumption during daily sessions ([4]; two highest doses of NPY in the PVN): greater than 90%

Molecule: [D-Tyr^27,36,D-Thr^32] Neuropeptide Y (27-36) [D-NPY]
- body weight in the home cage ([2]; D-NPY alone or in combination with NPY in the PVN): produced no effect on body weight
- ethanol intake ([4]; D-NPY alone infused in the PVN): partial, but significant, decrease in ethanol intake
- NPY-induced decrease in water intake during sessions [4, 8]: completely blocked the effects of NPY on ethanol and water intake; also recorded: significantly reversed NPY-induced decreases in water intake
- NPY-induced increase in ethanol intake [4, 8]: completely blocked the effects of NPY on ethanol and water intake
- NPY-induced increase in ethanol preference ([4]; D-NPY co-administered with NPY (10 fmol) in the PVN, P<0.09): did not significantly alter

— patent US20040029953A1, “Use of neuropeptide-y antagonists in treatment of alcoholism” (priority 2000, published 2004)
